Data taken from patent US20260285857A1, “BICYCLIC AND HETEROCYCLIC AMIDE COMPOUNDS” (priority 2024, published 2026).

Tested on: immunoglobulin light chain protein WIL-FL T46L
Test: Differential scanning fluorimetry (thermal shift) assay
Type: binding
Details: Table A; temperature shift [Tm]compound-[Tm]vehicle; recombinant WIL-FL T46L

SMILES	DSF
CCC(=O)N1CC(O)C(NC(=O)c2nc3c(C)cc(N4CC[C@](C)(c5ccccc5)C4)cn3n2)C1 (stereo partly shown) [Compound 108]	***** (>2.5° C.=*****)
Cc1cc(OC(C)c2ccc(F)c(Cl)c2)cn2nc(C(=O)N3CC[C@@]4(CCC(c5cccc(C(=O)O)n5)C4)C3)nc12 (stereo partly shown) [Compound 412]	* (0-0.5° C.=*)
CCNC(=O)C12COC(c3nc4c(C)cc(N5CC[C@](C)(c6ccccc6)C5)cn4n3)(C1)C2 [Compound 54]	***** (>2.5° C.=*****)
Cc1cc(N2CC[C@](C)(c3ccccc3)C2)cn2nc(C(=O)NC3CC4(C3)CC(N3C[C@H](F)[C@@H](F)C3)C4)nc12 (stereo partly shown) [Compound 363]	***** (>2.5° C.=*****)
Cc1cc(N2CC[C@](C)(c3cccc(F)c3)C2)cn2nc(C(=O)N3CCC(C)(O)C3)nc12 (stereo partly shown) [Compound 385]	***** (>2.5° C.=*****)
Cc1cc(N2CC[C@](C)(c3ccccc3)C2)cn2nc(C(=O)NC3CC4(CCC4N4CC5C(C4)C5C(=O)O)C3)nc12 (stereo partly drawn) [Compound 31, 3-[2-[[8-methyl-6-[(3R)-3-methyl-3-phenyl-pyrrolidin-1-yl]-[1,2,4]triazolo[1,5-a]pyridine-2-carbonyl]amino]spiro[3.3]heptan-7-yl]-3-azabicyclo[3.1.0]hexane-6-carboxylic acid]	***** (>2.5° C.=*****)
COCC(C)(O)CNC(=O)c1nc2c(C)cc(N3CC[C@](C)(c4ccccc4)C3)cn2n1 (stereo partly shown) [Compound 138]	***** (>2.5° C.=*****)
Cc1cc(N2CC3(c4ccccc4)CC2C3)cn2nc(C(=O)N3CC4CN(c5cccc(C(=O)O)n5)CC4C3)nc12 (stereo not shown) [Compound 431]	* (0-0.5° C.=*)
COC(=O)c1n[nH]c(N2CCC3(CCN(C(=O)c4nc5c(C)cc(N6CC[C@](C)(c7ccccc7)C6)cn5n4)C3)C2)n1 (stereo partly shown) [Compound 233]	***** (>2.5° C.=*****)
Cc1cc(N2CC[C@](C)(c3ccccc3)C2)cn2nc(C(=O)N[C@@H]3CC[C@H]3O)nc12 [Compound 160]	***** (>2.5° C.=*****)
COc1ccc([C@@]2(C)CCN(c3cc(C)c4nc(C(=O)N5CC[C@@]6(CCN(c7cccc(C(=O)O)n7)C6)C5)nn4c3)C2)cc1 [Compound 411]	***** (>2.5° C.=*****)
Cc1cc(OC[C@H](C)c2ccccc2)cn2nc(C(=O)NC3CCN(c4ccnc(C(=O)O)c4)C3)nc12 (stereo partly shown) [Compound 321]	***** (>2.5° C.=*****)
Cc1nnc(C2(C)CCN(c3cc(C)c4nc(C(=O)N5C[C@@H]6CN(c7cccc(C(=O)O)n7)C[C@@H]6C5)nn4c3)C2)s1 (stereo partly shown) [Compound 301]	* (0-0.5° C.=*)
Cc1cc(N2CC[C@](C)(c3ccccc3)C2)cn2nc(C(=O)N3CCC4(CCN(c5nc(C(=O)O)n[nH]5)C4)C3)nc12 (stereo partly shown) [Compound 235]	***** (>2.5° C.=*****)
Cc1cc(OC[C@H](C)c2ccccc2)cn2nc(C(=O)N3CCC(Cc4ccc(C(=O)O)nc4)CC3)nc12 [Compound 304]	***** (>2.5° C.=*****)
C[C@]1(c2ccccc2)CCN(c2cc(CO)c3nc(C(=O)N4CCC5(CCN(c6ccnc(C(=O)O)c6)C5)C4)nn3c2)C1 (stereo partly shown) [Compound 334]	***** (>2.5° C.=*****)
Cc1cc(N2CC[C@](C)(c3ccccc3)C2)cn2nc(C(=O)NCCC(C)(C)O)nc12 [Compound 130]	***** (>2.5° C.=*****)
Cc1cc(OC[C@H](C)c2ccccc2)cn2nc(C34CC(N)(CO3)C4)nc12 [Compound 61]	**** (>1.5-2.5° C.=****)
Cc1cc(OC[C@H](C)c2cccc(F)c2)cn2nc(C(=O)NC3CC4(C3)CC(N3CC5C(C3)C5C(=O)O)C4)nc12 (stereo partly shown) [Compound 310]	***** (>2.5° C.=*****)
C[C@]1(c2ccccc2)CCN(c2cc(O)c3nc(C(=O)N4CC[C@@]5(CCN(c6cccc(C(=O)O)n6)C5)C4)nn3c2)C1 [Compound 293]	**** (>1.5-2.5° C.=****)
Cc1cc(N2CC[C@](C)(c3ccccc3)C2)cn2nc(C(=O)NC3CCN(c4cc(C(=O)O)ccn4)CC3)nc12 [Compound 227]	***** (>2.5° C.=*****)
Cc1cc(N2CC[C@](C)(c3ccccc3)C2)cn2nc(C(=O)N[C@H]3CC[C@H](c4ccc(C(=O)O)c(F)c4)CC3)nc12 [Compound 225]	***** (>2.5° C.=*****)
Cc1cc(N2CC[C@](C)(c3ccccc3)C2)cn2nc(C(=O)NC3CCS(=N)(=O)C3)nc12 (stereo partly shown) [Compound 147]	***** (>2.5° C.=*****)
Cc1cc(N2CC[C@](C)(c3ccccc3)C2)cn2nc(C(=O)N3CCn4nc(-c5cccc(C(=O)O)n5)nc4C3)nc12 [Compound 404]	***** (>2.5° C.=*****)
Cc1cc(N2CC[C@](C)(c3ccccc3)C2)cn2nc(C34CC(CO3)C4Cc3ncnn3C)nc12 (stereo partly shown) [Compound 86]	***** (>2.5° C.=*****)
Cc1cc(OC[C@H](C)c2ccccc2)cn2nc(C34CC(CO3)C4N)nc12 (stereo partly shown) [Compound 98]	*** (>1-1.5° C.=***)
Cc1cc(N2CC3(CC[C@@H]3c3ccccc3)C2)cn2nc(C(=O)N3CC[C@@]4(CCN(c5cccc(C(=O)[O-])n5)C4)C3)nc12.[Li+] [Compound 24B, lithium 6-((R)-7-(8-methyl-6-((R)-5-phenyl-2-azaspiro[3.3]heptan-2-yl)-[1,2,4]triazolo[1,5-a]pyridine-2-carbonyl)-2,7-diazaspiro[4.4]nonan-2-yl)picolinate]	***** (>2.5° C.=*****)

Same assay, conditions: Table B; temperature shift [Tm]compound-[Tm]vehicle; recombinant WIL-FL T46L

SMILES	DSF
Cc1cc(N2CC[C@](C)(c3ccccc3Cl)C2)cn2nc(C34CC(CO3)C4N3CC4(CC4)NC3=O)nc12 (stereo partly drawn) [Compound 513, 6-[1-[6-[(3R)-3-(2-chlorophenyl)-3-methyl-pyrrolidin-1-yl]-8-methyl-[1,2,4]triazolo[1,5-a]pyridin-2-yl]-2-oxabicyclo[2.1.1]hexan-5-yl]-4,6-diazaspiro[2.4]heptan-5-one]	***** (>2.5° C.=*****)
Cc1cc(N2CC[C@](C)(c3ccccc3)C2)cn2nc(C(=O)N3CC[C@@]4(CCN(C(=O)C56CCCC(C(=O)O)(C5)C6)C4)C3)nc12 [Compound 733, 5-((R)-7-(8-methyl-6-((R)-3-methyl-3-phenylpyrrolidin-1-yl)-[1,2,4]triazolo[1,5-a]pyridine-2-carbonyl)-2,7-diazaspiro[4.4]nonane-2-carbonyl)bicyclo[3.1.1]heptane-1-carboxylic acid]	***** (>2.5° C.=*****)
CCC1(c2ccccc2)CN(c2cc(C)c3nc(C(=O)N4C[C@@H]5CN(c6cccc(C(=O)O)n6)C[C@@H]5C4)nn3c2)C1 [Compound 631]	***** (>2.5° C.=*****)
Cc1cc(N2CC3(CCC3c3cccc(F)c3)C2)cn2nc(C(=O)N3CC[C@@]4(CCN(c5cccc(C(=O)O)n5)C4)C3)nc12 (stereo partly shown) [Compound 738]	***** (>2.5° C.=*****)
Cc1ccc(C(=O)O)nc1N1CCC2(CCN(C(=O)c3nc4c(C)cc(N5CC[C@](C)(c6ccccc6)C5)cn4n3)C2)C1 (stereo partly shown) [Compound 692]	***** (>2.5° C.=*****)
Cc1cc(N2CC[C@](C)(c3ccccc3)C2)cn2nc(C34CC(N5CC6(CC6C(=O)O)C5)(CO3)C4)nc12 (stereo partly drawn) [Compound 470, 5-[1-[8-methyl-6-[(3R)-3-methyl-3-phenyl-pyrrolidin-1-yl]-[1,2,4]triazolo[1,5-a]pyridin-2-yl]-2-oxabicyclo[2.1.1]hexan-4-yl]-5-azaspiro[2.3]hexane-2-carboxylic acid]	***** (>2.5° C.=*****)
Cc1cc(N2CC[C@](C)(c3ccccc3)C2)cn2nc(C34CC(CO3)C4NC3(C#N)CC3)nc12 (stereo partly drawn) [Compound 530, 1-((1-(8-methyl-6-((R)-3-methyl-3-phenylpyrrolidin-1-yl)-[1,2,4]triazolo[1,5-a]pyridin-2-yl)-2-oxabicyclo[2.1.1]hexan-5-yl)amino)cyclopropane-1-carbonitrile]	***** (>2.5° C.=*****)
CC(=O)N[C@@]12CO[C@@](c3nc4c(C)cc(N5CC[C@](C)(c6ccccc6)C5)cn4n3)(C1)[C@@H]2CO [Compound 544, N-((1S,4S,5S)-5-(hydroxymethyl)-1-(8-methyl-6-((R)-3-methyl-3-phenylpyrrolidin-1-yl)-[1,2,4]triazolo[1,5-a]pyridin-2-yl)-2-oxabicyclo[2.1.1]hexan-4-yl)acetamide]	***** (>2.5° C.=*****)
Cc1cc(OC[C@H](C)c2ccccc2)cn2nc(C34CC(CO3)C4Cn3ncnc3C)nc12 (stereo partly drawn) [Compound 486, 8-methyl-2-[5-[(5-methyl-1,2,4-triazol-1-yl)methyl]-2-oxabicyclo[2.1.1]hexan-1-yl]-6-[(2R)-2-phenylpropoxy]-[1,2,4]triazolo[1,5-a]pyridine]	**** (>1.5-2.5° C.=****)
Cc1cc(N2CC[C@](C)(c3ccccc3)C2)cn2nc(C(=O)NC3CC[C@]4(CCN(c5cccc(C(=O)O)n5)C4)C3)nc12 (mixture of isomers) [Compound 633, 6-[rac-(5S)-8-[[8-methyl-6-[rac-(3R)-3-methyl-3-phenyl-pyrrolidin-1-yl]-[1,2,4]triazolo[1,5-a]pyridine-2-carbonyl]amino]-2-azaspiro[4.4]nonan-2-yl]pyridine-2-carboxylic acid]	***** (>2.5° C.=*****)
Cc1cc(N2CC[C@](C)(c3ccccc3)C2)cn2nc(C34CC(C(=O)NCC(=O)O)(CO3)C4)nc12 [Compound 444]	***** (>2.5° C.=*****)
Cc1cc(N2CC[C@](C)(c3ccccc3)C2)cn2nc(C34CC(CO3)C4N3CC4(CC(CO)C4)NC3=O)nc12 (stereo partly shown) [Compound 511]	***** (>2.5° C.=*****)
Cc1cc(N2CC(CF)(c3ccccc3)C2)cn2nc(C(=O)N3CC[C@@]4(CCN(c5cccc(C(=O)O)n5)C4)C3)nc12 [Compound 752, 6-[(5R)-2-[6-[3-(fluoromethyl)-3-phenyl-azetidin-1-yl]-8-methyl-[1,2,4]triazolo[1,5-a]pyridine-2-carbonyl]-2,7-diazaspiro[4.4]nonan-7-yl]pyridine-2-carboxylic acid]	***** (>2.5° C.=*****)
Cc1cc(N2CC[C@](C)(c3ccccc3)C2)cn2nc(C(=O)N3CC[C@@]4(CCN(C(=O)C5CC(C)(C(=O)O)C5)C4)C3)nc12 (stereo partly shown) [Compound 709]	***** (>2.5° C.=*****)
Cc1cc(N2CC[C@](C)(c3ccccc3F)C2)cn2nc(C(=O)N3CC[C@@]4(CCN(c5cccc(C(=O)O)n5)C4)C3)nc12 [Compound 749]	***** (>2.5° C.=*****)
Cc1cc(N2CC[C@](C)(c3ccccc3)C2)cn2nc(C(=O)N3CC4COCC4(C(=O)O)C3)nc12 (stereo partly shown) [Compound 604]	***** (>2.5° C.=*****)
